The values below come from patent US8575089B2, “Composition for preventing or treating inflammation” (University-Industry Cooperation Group of Kyung Hee, priority 2009, dated 2013).

Where no end group is shown, it is not given here.

Assay [1] deals with hematopoietic stem cells in blood. The assay can be described thus: Corneal epithelial burn model: HSC-CFU assay of blood cells. It is filed as in vivo, New Zealand white rabbit. The settings on record: rabbit, alkali burn of cornea; 5 nmole/kg SP i.v. immediately and 24 hours after burning; without SP peak at five days; FIG. 5. On the procedure: Ketalar (50 mg/ml, Yuhan Corporation) and Rompun (23.32 mg (Xylazine hydrochloride)/ml, Bayer Korea Corporation) were mixed in a rate of 2:1, and then total 900 μl (Ketalar 600 μl: Rompun 300 μl) was injected into muscles of rabbits (New Zealand white rabbit, Male, 2.5 kg, n=4). After the intramuscular injection, 300 μl (Ketalar 200 μl: Rompun 100 μl) of the same anesthetic drug was injected in the rabbit's ear vein.
A 6 mm paper disc fully wetted by 1N NaOH was contacted to a limbus part of rabbit's cornea for 10 seconds. After alkali burning, corneal epithelium was removed in a size of the paper disc. The rabbit's eyes were quickly washed with a physiological saline immediately after alkali burning. At the same time, 5 nmole/kg of SP dissolved in a physiological saline was intravenously injected, and then after 24 hours, was injected once more (immediately after burning and at 24 hours after burning). For the control, PBS with the same volume was injected (injection Volume: 1 ml).
Peripheral blood was collected from ear veins in 10 ml at one, three, five and seven days after alkali burning. […]
1×10^4 cells among the whole cells was used for HSC-CFU assay. […] The cells were cultured in the media for 2 weeks (5% CO2, 37° C.), the number of colonies was counted by using a microscope (Leica) and then the results were shown in FIG. 5.

In assay [2] the test system is inflammatory cells in blood. The assay can be described thus: Radiation-irradiating model: CBC of inflammatory cells in blood. It is filed as in vivo, C57b1/6 mice. The settings on record: mice, 8 Gy, 5 nmole/kg SP i.v. one day before and immediately after irradiation, 4.5 hours after irradiation, vs group without SP. How it is done: (§1) 5 nmole/kg of SP dissolved in a physiological saline was injected to a tail vein of C57b1/6 mice (8 weeks, sex; male, n=4, Average weight; 20 g) one day before irradiation and immediately after irradiation. The irradiation was performed at 8 Gy radiation in a Gamma lay radiation irradiator (^137Cs, Atomic Energy of Canada, Mississauga, Canada). The mice were sacrificed at 4.5 hours and one day after irradiation, and then the blood was collected. The part of the blood was used for analyzing CBC (Complete Blood Count) and the remaining blood was used to isolate serum and then analyze cytokines
200 μl of mouse's blood was taken at 4.5 hours and one day after 8 Gy radiation; it was added to a vial including a small amount of EDTA and then analyzed for CBC. […] It was confirmed that SP has an effect of inhibiting an increase of inflammatory cells caused by irradiation.

For another assay, the system named is pancreas beta cells. The assay can be described thus: Streptozotocin-induced Type I diabetes: insulin IHC staining of pancreas. Type of assay: in vivo, ICR mouse.
Assay [3] can be described thus: Streptozotocin-induced Type I diabetes: blood glucose level and weight. Type of assay: in vivo, ICR mouse. The settings on record: for blood glucose level: FIG. 13. On the procedure: Specifically, 5 nmole/kg of SP dissolved in a physiological saline was injected to a tail vein of ICR mouse (8 weeks, sex; male, n=10, Average Weight: 30 g), and then STZ (Sigma, USA) was intraabdominally injected. Streptozotocin was daily injected intraabdominally for two days, and SP was intravenously injected at the same concentration for five days. Only streptozotocin was injected for the control; after one week, blood glucose level was checked to confirm induction of diabetes; then SP was intravenously injected for five days from seven days after STZ injection.
Blood glucose level and weight were investigated. One drop of blood was taken from a tail vein of mouse by one time per 2-3 days, and a blood glucose level was measured by using a glucometer (Roche, Switzerland) and a weight was measured.

Another assay deals with IL-10. The assay can be described thus: Radiation-irradiating model: anti-inflammatory cytokine IL-10 in blood (ELISA). It is filed as in vivo, C57b1/6 mice. The settings on record: mice, 8 Gy, 5 nmole/kg SP i.v., FIG. 9. On the procedure: as §1
IL-6 and TNFα that are well known as inflammatory cytokines were analyzed. Specific procedures were as follows: Serum samples stored in […] and reagents, controls, and standard proteins stored in a cold storage were taken out at a room temperature. […] After 30 minutes, 100 μl of stop codon was treated to stop the reaction; the optical density was measured at 450 nm; the amounts of cytokines were converted based on a protein conversion formula by a standard sample; and then the result was shown in FIG. 8. […]
IL-10 that is well known as an anti-inflammatory cytokine was analyzed with ELISA (R&D System) by using the same method as Example 2-2.
(In general: In an ELISA, binding on a coated surface is turned into a signal by an enzyme label.)

For the substance “Substance-P (RPKPQQFFGLM; not fully specified; ends and bridges not checked; UniProt P20366 58-68, looked up)”, the “number of HSC (HSC-CFU colonies) in blood” value in assay [1] is “increased at early stage and then decreased immediately three days after injection”. Also, the “leukocyte (White Blood Cell) in blood” value in assay [2] (FIG. 7A) was “decreased at least two times”. Besides, the “mononuclear cell in blood” value in assay [2] (FIG. 7B) is “decreased at least two times”. In assay [2] (FIG. 7C), the “neutrophilic leukocyte in blood” value is reported as “decreased at least two times”. Further, the “decrease of eosinocyte in blood” value in assay [2] (FIG. 7D) is 30-40%. In addition, the diabetes lesion result in the assay with pancreas beta cells (STZ-induced diabetes, SP treated after inducing diabetes) was “becomes weak”. The “progress of Type I diabetes” value in the assay with pancreas beta cells (STZ-induced diabetes, SP treated when diabetes was induced) is on record as “inhibits”. Moreover, the “death of beta cells secreting insulin” value with pancreas beta cells (STZ-induced diabetes, mice sacrificed at 11 weeks, FIG. 12) is “inhibited”. In addition, in the assay on pancreas beta cells (group with injecting SP, mice sacrificed at 11 weeks, vs significantly low with only STZ, FIG. 12), the “insulin secretion (Insulin IHC staining of pancreas)” value is on record as “high”. The blood glucose level result in assay [3] (STZ/SP-injected group: 5 nmole/kg SP i.v. for five days at the same time as STZ) is “maintained in normal state”; in assay [3] (STZ/after SP-injected group: SP i.v. for five days from seven days after STZ, after inducing diabetes), “decreased in the short run”. In assay [3] (STZ/SP-injected group: 5 nmole/kg SP i.v. for five days at the same time as STZ, FIG. 14), the weight entry is on record as “maintained in normal state”. The “amount of IL-10 in blood” value is “increased by at least two times” in the assay with IL-10 (4.5 hours after irradiation) and “increased” in the assay with IL-10 (one day after irradiation).
